# Reference: PMC6337391 (Molecules, 2019)
# Like-named read-outs stand apart in the source and are kept apart here.
# How the values were obtained:
# [1] = design: method as in PMID 25798685; conditions: cited from earlier work
# [2] = biological target: acetyl-cholinesterase (AChE) (Electrophorus electricus, UniProt O42275); conditions: cited from earlier work
# soybean lipoxygenase [3] = biological target: T1, soybean lipoxygenase (Glycine max, UniProt P08170); design: method as in PMID 25798685; conditions: cited from earlier work
# T1 sequence (P08170 1-839): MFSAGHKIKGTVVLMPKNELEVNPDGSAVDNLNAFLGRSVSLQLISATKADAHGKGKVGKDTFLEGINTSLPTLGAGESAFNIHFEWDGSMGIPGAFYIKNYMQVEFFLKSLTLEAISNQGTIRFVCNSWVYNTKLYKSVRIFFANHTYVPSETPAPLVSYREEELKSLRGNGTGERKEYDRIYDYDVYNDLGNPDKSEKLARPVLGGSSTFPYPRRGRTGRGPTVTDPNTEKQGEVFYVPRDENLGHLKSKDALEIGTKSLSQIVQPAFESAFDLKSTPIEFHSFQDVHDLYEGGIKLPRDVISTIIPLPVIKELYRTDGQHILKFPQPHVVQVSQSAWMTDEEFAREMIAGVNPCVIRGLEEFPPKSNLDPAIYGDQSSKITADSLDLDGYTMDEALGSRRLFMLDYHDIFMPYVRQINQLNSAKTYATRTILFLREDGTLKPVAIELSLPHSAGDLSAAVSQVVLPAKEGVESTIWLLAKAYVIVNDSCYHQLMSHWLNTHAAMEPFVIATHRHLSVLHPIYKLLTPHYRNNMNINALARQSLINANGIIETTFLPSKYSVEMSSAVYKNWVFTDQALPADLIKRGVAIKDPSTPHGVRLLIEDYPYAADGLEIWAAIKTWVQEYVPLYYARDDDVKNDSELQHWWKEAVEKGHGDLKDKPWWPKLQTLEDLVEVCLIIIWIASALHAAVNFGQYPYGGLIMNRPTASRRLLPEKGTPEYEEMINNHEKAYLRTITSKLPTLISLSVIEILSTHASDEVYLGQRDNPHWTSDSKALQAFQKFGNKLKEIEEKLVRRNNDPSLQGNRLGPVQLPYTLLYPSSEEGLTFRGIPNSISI
# [4] = design: method as in PMID 25798685; conditions: RP-TLC, methanol/water 70/30, SD < 10%; cited from earlier work
# [5] = design: method as in PMID 25798685; conditions: cited from earlier work; remark: listed apart in the source
# [6] = tested on: L929 mouse fibroblasts cells; design: method as in PMID 25798685; conditions: 24-h incubation, cited from earlier work
# [7] = design: method as in PMID 25798685; conditions: DPPH, cited from earlier work
# Aβ40 = biological target: T2, Aβ40 (Homo sapiens, UniProt P05067); assay: Circular dichroism study of Aβ40 aggregation; conditions: 50 µM compound, 50 µM Aβ40 (1:1), PB pH 7.33, 33 °C, 40 days
# T2 construct: Amyloid peptide Aβ40 was purchased from AnaSpec Co; purchased AnaSpec Co. (Fremont, CA, USA)
# T2 sequence (P05067 672-711 limits assumed): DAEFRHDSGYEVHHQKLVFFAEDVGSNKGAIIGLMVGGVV
# Excerpt: The pathogenesis of Alzheimer’s disease (AD) is widely associated with the aggregation of β-amyloid peptide (Aβ) either to soluble oligomers or to higher-order polymeric insoluble fibrils. As a result, one of the main therapeutic strategies against AD targets the aggregation process of Aβ, and a great number of small molecules are being investigated for their potential to intervene in the assembly of Aβ and inhibit its neurotoxicity in vitro and in vivo [64]. Circular dichroism (CD) spectroscopy is commonly used to probe the secondary structure of polypeptides and to monitor conformational changes and interactions of polypeptides with small molecules. The typical aggregation process of Aβ produces characteristic CD spectra over time that reflect the conformational changes that occur as the random coil monomers are converted into β-sheet oligomers, and then gradually to larger β-sheet formations that finally produce amyloid fibrils. CD is, therefore, a valuable tool to monitor the aggregation process of Aβ and to study the effect of potential aggregation inhibitors. To further investigate the pleiotropic effects of chalcones against AD, selected compounds from our library, were subjected to CD studies in order to evaluate their potential to interfere with the aggregation process of Aβ40. […] The aggregation spectra of plain Aβ40 show at day 0 the typical random coil peak (negative maximum at 198 nm) the intensity of which gradually decreases as the peptide forms β–sheet structures (negative maximum at 222 nm, day 15) that further aggregate to higher order polymeric fibrils. The precipitation of the insoluble fibrils from solution eventually results in the loss of CD signal (days 30 and 40). […] In view of the above results, chalcone derivatives bearing a three-carbon chain linker, specifically c2, c3, and c4, were subsequently studied in order to assess the effect of further derivatization and the presence of the chalcone moiety in the structure. […] Overall, our CD study identified three new structures capable of interfering with the aggregation process of Aβ, out of which compounds c2 and c4 display additional protective actions against AD and add to the pleiotropic profile of the chalcone derivatives.
# Preparation of Aβ stocks and solutions. Amyloid peptide Aβ40 was purchased from AnaSpec Co. (Fremont, CA, USA) (>95% pure). Aβ40 was gently dissolved without vortexing in Type 1 (Milli-Q) water to a final concentration of 100 μM. Solutions of Aβ in phosphate buffer (PB, 10 mM, pH 7.33) were prepared by adding equal volumes of PB to aliquots of the aqueous solution stock to achieve final concentration of 50 µM. The proper amount of the compounds c2, c3, c4, di, dii, and dvi were added to the Aβ solutions to achieve concentration of 50 μM. The secondary structural changes of Aβ were monitored for 40 days by CD. During this period, the amyloid peptide solutions were kept at an incubator at 33 °C under quiescent conditions.
# Circular dichroism measurements. CD spectra were recorded on a JASCO J-715 spectropolarimeter (Jasco Co., Tokyo, Japan), at 33 °C in the range of 190–260 nm with a 1 mm path length quartz cuvette. Each spectrum was the average of three scans at a speed of 100 nm·min^−1 and a resolution of 0.5 nm. Three independent experiments were run for each condition and in each case solutions of plain Aβ were run as control (Figure 8). The analysis of the CD data was performed using the OriginPro 9 program.
# [8] = In vitro lipid peroxidation of liposomes
# [9] = Reducing activity with the stable radical DPPH
# Summary of the method: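 DPPH (final 0.05 mM) in absolute ethanol mixed with an equal volume of compound at 0.05 or 0.1 mM, ethanol as control. Absorbance at 517 nm read at room temperature after 20 and 60 min, expressed as reducing activity RA%.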
# soybean lipoxygenase [10] = biological target: T1, soybean lipoxygenase; assay: biochemical; assay type: biochemical; conditions: soybean LOX
# Summary of the method: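 Soybean LOX (enzyme solution 1/9 × 10^−4 w/v in saline) incubated at room temperature with sodium linoleate ([…]) in tris buffer pH 9. Compounds added from DMSO stocks. IC50 derived from several concentrations.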
# [11] = Inhibition of linoleic acid lipid peroxidation (AAPH)
# Summary of the method: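 Sodium linoleate oxidation was initiated by AAPH in 0.05 M phosphate buffer, pH 7.4, at 37 °C, with test compound present and DMSO as blank. Conjugated diene hydroperoxide formation was followed as the absorbance increase at 234 nm.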
# [12] = Lipophilicity as RM values by RP-TLC; assay type: physicochemical; design: key: RM = log[(1/Rf) − 1]; conditions: methanol/water 70/30, SD < 10%
# Summary of the method: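 Reversed-phase TLC on silica gel plates impregnated with 5% (v/v) liquid paraffin, methanol/water 70/30 (v/v) mobile phase, saturated tanks at 24 °C, UV detection. RM = log[(1/Rf) − 1] from five Rf measurements.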
# [13] = tested on: L929 mouse fibroblasts cells; assay: Cytotoxicity, propidium iodide fluorescence method; assay type: cell-based; conditions: 24-h incubation
# Summary of the method: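 L929 cells in EMEM with 10% horse serum were allowed to attach for 24 h, then exposed to 1, 10, 20, 50 and 100 μM compound for 24 h at 37 °C. Cells were detached, stained with propidium iodide, and cell death was measured by flow cytometry.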
# [14] = ABTS•+ decolorization assay
# Summary of the method: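 Compounds (10 mM DMSO stocks, diluted) added to ABTS•+ radical generated by potassium persulfate oxidation of ABTS. Decolorization followed as absorbance at room temperature, with Trolox as standard.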
# Chain of acetyl-cholinesterase (AChE) (O42275 24-633): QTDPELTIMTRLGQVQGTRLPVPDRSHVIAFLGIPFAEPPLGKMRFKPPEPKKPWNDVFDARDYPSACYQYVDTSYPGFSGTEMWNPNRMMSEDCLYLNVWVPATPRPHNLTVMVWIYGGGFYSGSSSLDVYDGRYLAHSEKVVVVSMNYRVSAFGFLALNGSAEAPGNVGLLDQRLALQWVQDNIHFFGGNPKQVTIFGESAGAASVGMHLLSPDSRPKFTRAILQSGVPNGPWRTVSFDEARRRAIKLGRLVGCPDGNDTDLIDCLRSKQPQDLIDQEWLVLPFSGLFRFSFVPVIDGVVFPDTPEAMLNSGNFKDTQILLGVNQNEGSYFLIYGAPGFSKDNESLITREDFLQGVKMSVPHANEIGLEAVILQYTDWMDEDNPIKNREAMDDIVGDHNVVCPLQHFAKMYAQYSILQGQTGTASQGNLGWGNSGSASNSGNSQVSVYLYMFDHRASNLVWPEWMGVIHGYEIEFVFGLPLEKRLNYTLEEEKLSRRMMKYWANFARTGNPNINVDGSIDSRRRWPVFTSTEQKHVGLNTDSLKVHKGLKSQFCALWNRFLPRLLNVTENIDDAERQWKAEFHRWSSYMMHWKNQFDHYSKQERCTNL
Compound,ABTS•+ Inhb. % @ 100 μM [1],% AChE Inhb. @ 100 μM [2],% LOX Inhb. @ 100 μM (soybean lipoxygenase [3]),RM [4],AAPH% @ 100 μM (anti-lipid peroxidation) [5],1 μM Average (% pi) ± σ [6],10 μM Average (% pi) ± σ [6],20 μM Average (% pi) ± σ [6],50 μM Average (% pi) ± σ [6],100 μM Average (% pi) ± σ [6],RA% 100 μM 20 min [7],RA% 100 μM 60 min [7],effect on the aggregation process of Aβ40 (CD spectra) (Aβ40),% Inhb. of Liposomes LP @ 100 μM [8],further results
"O=C(/C=C/c1ccc(OCc2ccc(Br)cc2)cc1)c1ccc(OCCCOc2ccc(C(=O)/C=C/c3ccc(OCc4ccc(Br)cc4)cc3)cc2)cc1 [c1, (2E,2′E)-1,1′-((propane-1,3-diylbis(oxy))bis(4,1-phenylene))bis(3-(4-((4-bromobenzyl)oxy)phenyl)prop-2-en-1-one)]",no,23%,41%,−0.68,42%,38.5 ± 6.9%,49.5 ± 7.8%,53.5 ± 0.71%,74 ± 5.6%,74 ± 5.6%,36%,55%,,,
"O=C(/C=C/c1cccc(Oc2ccccc2)c1)c1ccc(OCCCOc2ccc(C(=O)/C=C/c3cccc(Oc4ccccc4)c3)cc2)cc1 [c2, (2E,2′E)-1,1′-((propane-1,3-diylbis(oxy))bis(4,1-phenylene))bis(3-(3-phenoxyphenyl)prop-2-en-1-one)]",no,71%,100%,−0.89,22%,17 ± 1.4%,29 ± 4.2%,43 ± 2.8%,55 ± 4.2%,55 ± 4.2%,No,8%,stabilized β-sheet assemblies that did not evolve further into insoluble fibrillar aggregates,2%,IC50 (soybean lipoxygenase [3]; soybean LOX): 55 µM
"CN(C)c1ccc(/C=C/C=C/C(=O)c2ccc(OCCCOc3ccc(C(=O)/C=C/C=C/c4ccc(N(C)C)cc4)cc3)cc2)cc1 [c3, (2E,2′E, 4E, 4′E)-1,1′-((propane-1,3-diylbis-(oxy))bis(4,1-phenylene)) bis-(5-(4-(dimethylamino)phenyl)penta-2,4-dien-1-one)]",99%,95%,93%,0.77,70%,81 ± 0.8%,90 ± 1%,100 ± 0%,100 ± 0%,100 ± 0%,17%,14%,no significant effect on the aggregation process of Aβ40 was observed,81%,
"Cc1ccc(/C=C/C(=O)c2ccc(OCCCOc3ccc(C(=O)/C=C/c4ccc(C)o4)cc3)cc2)o1 [c12, (2E,2′E)-1,1′-((propane-1,3-diylbis(oxy))bis(4,1-phenylene))bis(3-(5-methylfuran-2-yl)prop-2-en-1-one)]",,,,,,,,,,,,,,74%,RA% 100 μM 20 min ([9]; 20 min): No; RA% 100 μM 60 min ([9]; 60 min): no; % LOX Inhb. @ 100 μM (soybean lipoxygenase [10]; 100 μM): 52%; IC50 (soybean lipoxygenase [10]; read-out: LOX IC50): 96 µM; AAPH% @ 100 μM (anti-lipid peroxidation) [11]: 68%; RM [12]: −0.96; 1 μM Average (% pi) ± σ ([13]; 1 μM): 13.22 ± 0.64%; 10 μM Average (% pi) ± σ ([13]; 10 μM): 31.31 ± 4.84%; 20 μM Average (% pi) ± σ ([13]; 20 μM): 53.79 ± 16.95%; 50 μM Average (% pi) ± σ ([13]; 50 μM): 84.03 ± 2.25%; 100 μM Average (% pi) ± σ ([13]; 100 μM): 84.03 ± 2.25%; ABTS•+ Inhb. % @ 100 μM [14]: 17%
"CC(=O)c1ccc(OCCCOc2ccc(C(C)=O)cc2)cc1 [dii, 1,1′-((propane-1,3-diylbis-(oxy))bis(4,1-phenylene))diethanone]",No,20%,no,−0.23,20%,9 ± 4.5%,8.5 ± 4.24%,13 ± 4.5%,42 ± 3.5%,42 ± 3.5%,No,no,modified the aggregation course of Aβ40 by stabilizing a β-sheet structure that did not seem to evolve further,,
